target: PCAF bromodomain (His/Flag epitope tagged PCAF719-832) (Homo sapiens (Human), UniProt Q92831); test: PCAF AlphaLisa binding assay; conditions: not given
Experimental: IC50 Measurements for Inhibitors Using PCAF AlphaLisa Binding Assay
PCAF bromodomain binding and inhibition of the compounds disclosed herein was assessed by monitoring the engagement of biotinylated small molecule ligand (known to bind to the PCAF bromodomain) with the target using the AlphaLisa technology (Perkin-Elmer).

PCAF bromodomain (His/Flag epitope tagged PCAF719-832), sequence (Q92831 719-832): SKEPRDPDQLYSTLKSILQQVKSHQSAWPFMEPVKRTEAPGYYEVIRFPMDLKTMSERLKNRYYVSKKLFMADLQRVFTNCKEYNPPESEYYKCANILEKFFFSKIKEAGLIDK

Compound	IC50
Cn1ncc(NC2CN3CCC2CC3)c(Cl)c1=O (racemic) [Example 10, (racemic)-4-chloro-2-methyl-5-(quinuclidin-3-ylamino)pyridazin-3(2H)-one]	975 nM

same assay, conditions: AlphaLisa; PCAF bromodomain 225 nM, biotinylated small molecule ligand 6 nM; read-out: PCAF IC50

IC50	Compound
187 nM	CN1CCCC(Nc2cnn(C)c(=O)c2Cl)CC1 (racemic) [Example 4, (racemic)-4-chloro-2-methyl-5-((1-methylazepan-4-yl)amino)pyridazin-3(2H)-one]
1020 nM	Cn1ncc(NC2CCCOC2)c(Cl)c1=O (racemic) [Example 11, (racemic)-4-chloro-2-methyl-5-((tetrahydro-2H-pyran-3-yl)amino)pyridazin-3(2H)-one]
167 nM	CN1CC(Nc2cnn(C)c(=O)c2Cl)CC(c2ccccc2)C1 (racemic) [Example 24, 4-chloro-2-methyl-5-((1-methyl-5-phenylpiperidin-3-yl)amino)pyridazin-3(2H)-one]
34.8 nM	C[C@@H]1CC[C@@H](Nc2cnn(C)c(=O)c2Cl)CN1C (stereo in doubt) [Example 26, 4-chloro-5-((1,6-dimethylpiperidin-3-yl)amino)-2-methylpyridazin-3(2H)-one]
144 nM	C[C@@H]1CC[C@H](Nc2cnn(C)c(=O)c2Cl)CN1C (stereo in doubt) [Example 27, 4-chloro-5-((1,6-dimethylpiperidin-3-yl)amino)-2-methylpyridazin-3(2H)-one]
175 nM	C[C@@H]1CC[C@@H](Nc2cnn(C)c(=O)c2Cl)CN1C (stereo in doubt) [Example 28, 4-chloro-5-((1,6-dimethylpiperidin-3-yl)amino)-2-methylpyridazin-3(2H)-one]
51 nM	CN1CCCCC(Nc2cnn(C)c(=O)c2Br)C1 (stereo not shown) [Example 13, 4-bromo-2-methyl-5-((1-methylazepan-3-yl)amino)pyridazin-3(2H)-one]
1090 nM	CC(C)n1ncc(NC2CCCCN(C)C2)c(Cl)c1=O (stereo not shown) [Example 14, 4-chloro-2-isopropyl-5-((1-methylazepan-3-yl)amino)pyridazin-3(2H)-one]
312 nM	C/C=C/Cn1ncc(NC2CCCCN(C)C2)c(Cl)c1=O (stereo not shown) [Example 17, (E)-2-(but-2-en-1-yl)-4-chloro-5-((1-methylazepan-3-yl)amino)pyridazin-3(2H)-one]
315 nM	COCCN1CCCC(Nc2cnn(C)c(=O)c2Cl)C1 (stereo not shown) [Example 30, 4-chloro-5-((1-(2-methoxyethyl)piperidin-3-yl)amino)-2-methylpyridazin-3(2H)-one]
1980 nM	Cn1ncc(NC2CCCN(Cc3ccccn3)C2)c(Cl)c1=O (stereo not shown) [Example 33, 4-chloro-2-methyl-5-((1-(pyridin-2-ylmethyl)piperidin-3-yl)amino)pyridazin-3(2H)-one]
671 nM	C[C@H](c1ccccc1)N1CCCC(Nc2cnn(C)c(=O)c2Cl)C1 (stereo partly drawn) [Example 35, 4-chloro-2-methyl-5-((1-((R)-1-phenylethyl)piperidin-3-yl)amino)pyridazin-3(2H)-one]
631 nM	C[C@@H](c1ccccc1)N1CCCC(Nc2cnn(C)c(=O)c2Cl)C1 (stereo partly drawn) [Example 36, 4-chloro-2-methyl-5-((1-((S)-1-phenylethyl)piperidin-3-yl)amino)pyridazin-3(2H)-one]
102 nM	CN1Cc2ccccc2C[C@@H](Nc2cnn(C)c(=O)c2Cl)C1 [Example 39, (R)-4-chloro-2-methyl-5-((2-methyl-2,3,4,5-tetrahydro-1H-benzo[c]azepin-4-yl)amino)pyridazin-3(2H)-one]
155 nM	CN1CCCCCC(Nc2cnn(C)c(=O)c2Cl)C1 (stereo not shown) [Example 40, 4-chloro-2-methyl-5-((1-methylazocan-3-yl)amino)pyridazin-3(2H)-one]
1000 nM	Cn1ncc(NC2CCCN(Cc3c(F)cccc3F)C2)c(Cl)c1=O (stereo not shown) [Example 42, 4-chloro-5-((1-(2,6-difluorobenzyl)piperidin-3-yl)amino)-2-methylpyridazin-3(2H)-one]
310 nM	CN(C)c1ccc(CN2CCCC(Nc3cnn(C)c(=O)c3Cl)C2)cc1 (stereo not shown) [Example 43, 4-chloro-5-[[1-[(4-dimethylaminophenyl)methyl]-3-piperidyl]amino]-2-methyl-pyridazin-3-one]
94.9 nM	Cn1ncc(NC2CCCN(Cc3cccc(OC(F)F)c3)C2)c(Cl)c1=O (stereo not shown) [Example 44, 4-chloro-5-[[1-[[3-(difluoromethoxy)phenyl]methyl]-3-piperidyl]amino]-2-methyl-pyridazin-3-one]
386 nM	Cn1ncc(NC2CCCN(Cc3ccc(-n4ccnc4)cc3)C2)c(Cl)c1=O (stereo not shown) [Example 45, 4-chloro-5-[[1-[(4-imidazol-1-ylphenyl)methyl]-3-piperidyl]amino]-2-methyl-pyridazin-3-one]
278 nM	Cn1ncc(NC2CCCN(Cc3cc(Cl)cc(Cl)c3)C2)c(Cl)c1=O (stereo not shown) [Example 46, 4-chloro-5-((1-(3,5-dichlorobenzyl)piperidin-3-yl)amino)-2-methylpyridazin-3(2H)-one]
921 nM	Cn1ncc(NC2CCCN(Cc3ccccc3N3CCOCC3)C2)c(Cl)c1=O (stereo not shown) [Example 47, 4-chloro-2-methyl-5-[[1-[(2-morpholinophenyl)methyl]-3-piperidyl]amino]pyridazin-3-one]
625 nM	Cn1ncc(NC2CCCN(Cc3cncnc3)C2)c(Cl)c1=O (stereo not shown) [Example 50, 4-chloro-2-methyl-5-[[1-(pyrimidin-5-ylmethyl)-3-piperidyl]amino]pyridazin-3-one]
371 nM	Cn1cc(CN2CCCC(Nc3cnn(C)c(=O)c3Cl)C2)cn1 (stereo not shown) [Example 51, 4-chloro-2-methyl-5-[[1-[(1-methylpyrazol-4-yl)methyl]-3-piperidyl]amino]pyridazin-3-one]
441 nM	Cc1cncc(CN2CCCC(Nc3cnn(C)c(=O)c3Cl)C2)c1 (stereo not shown) [Example 53, 4-chloro-2-methyl-5-[[1-[(5-methyl-3-pyridyl)methyl]-3-piperidyl]amino]pyridazin-3-one]
1440 nM	Cc1nc(CN2CCCC(Nc3cnn(C)c(=O)c3Cl)C2)[nH]c1C (stereo not shown) [Example 54, 4-chloro-5-[[1-[(4,5-dimethyl-1H-imidazol-2-yl)methyl]-3-piperidyl]amino]-2-methyl-pyridazin-3-one]

The next lines start with the compound.

Compound	IC50
CN1CCCCC(Nc2cnn(C)c(=O)c2Cl)C1 (racemic) [Example 1, 4-chloro-2-methyl-5-((1-methylazepan-3-yl)amino)pyridazin-3(2H)-one]	62 nM
C[C@H]1CC[C@@H](Nc2cnn(C)c(=O)c2Cl)CN1C (stereo in doubt) [Example 29, 4-chloro-5-((1,6-dimethylpiperidin-3-yl)amino)-2-methylpyridazin-3(2H)-one]	48.5 nM
CN1CCC(Nc2cnn(C)c(=O)c2Cl)CC1 [Example 2, 4-chloro-2-methyl-5-((1-methylpiperidin-4-yl)amino)pyridazin-3(2H)-one]	1220 nM
CN1[C@@H]2CC[C@H]1C[C@@H](Nc1cnn(C)c(=O)c1Cl)C2 [Example 5, 4-chloro-2-methyl-5-(((1R,3r,5S)-8-methyl-8-azabicyclo[3.2.1]octan-3-yl)amino)pyridazin-3(2H)-one]	480 nM
CN1[C@@H]2CC[C@H]1C[C@H](Nc1cnn(C)c(=O)c1Cl)C2 [Example 6, 4-chloro-2-methyl-5-(((1R,3s,5S)-8-methyl-8-azabicyclo[3.2.1]octan-3-yl)amino)pyridazin-3(2H)-one]	492 nM
Cn1ncc(NC2CCCN(c3ccccn3)C2)c(Cl)c1=O (stereo not shown) [Example 9, 4-chloro-2-methyl-5-((1-(pyridin-2-yl)piperidin-3-yl)amino)pyridazin-3(2H)-one]	403 nM
Cc1c(NC2CCCCN(C)C2)cnn(C)c1=O (stereo not shown) [Example 12, 2,4-dimethyl-5-((1-methylazepan-3-yl)amino)pyridazin-3(2H)-one]	165 nM
CCn1ncc(NC2CCCCN(C)C2)c(Cl)c1=O (stereo not shown) [Example 15, 4-chloro-2-ethyl-5-((1-methylazepan-3-yl)amino)pyridazin-3(2H)-one]	407 nM
CN1CCCCC(Nc2cnn(CC3CC3)c(=O)c2Cl)C1 (stereo not shown) [Example 16, 4-chloro-2-(cyclopropylmethyl)-5((1-methylazepan-3-yl)amino)pyridazin-3(2H)-one]	421 nM
CC1CCC(Nc2cnn(C)c(=O)c2Cl)CN1C (stereo not shown) [Example 25, 4-chloro-5-((1,6-dimethylpiperidin-3-yl)amino)-2-methylpyridazin-3(2H)-one]	60 nM
Cn1ncc(NC2CCCN(C3COC3)C2)c(Cl)c1=O (stereo not shown) [Example 31, 4-chloro-2-methyl-5-((1-(oxetan-3-yl)piperidin-3-yl)amino)pyridazin-3(2H)-one]	1220 nM
CC(C)N1CCCC(Nc2cnn(C)c(=O)c2Cl)C1 (stereo not shown) [Example 32, 4-chloro-5-((1-isopropylpiperidin-3-yl)amino)-2-methylpyridazin-3(2H)-one]	147 nM
Cn1ncc(N[C@@H]2CCCCN(Cc3ccccc3)C2)c(Cl)c1=O [Example 37, (R)-5-((1-benzylazepan-3-yl)amino)-4-chloro-2-methylpyridazin-3(2H)-one]	972 nM
Cn1ncc(N[C@H]2CCCCN(Cc3ccccc3)C2)c(Cl)c1=O [Example 38, (S)-5-((1-benzylazepan-3-yl)amino)-4-chloro-2-methylpyridazin-3(2H)-one]	3770 nM
Cn1ncc(NC2CCCN(Cc3ncc[nH]3)C2)c(Cl)c1=O (stereo not shown) [Example 48, 4-chloro-5-[[1-(1H-imidazol-2-ylmethyl)-3-piperidyl]amino]-2-methyl-pyridazin-3-one]	379 nM
Cn1ncc(NC2CCCN(Cc3c[nH]cn3)C2)c(Cl)c1=O (stereo not shown) [Example 49, 4-chloro-5-[[1-(1H-imidazol-4-ylmethyl)-3-piperidyl]amino]-2-methyl-pyridazin-3-one]	178 nM
Cn1ccnc1CN1CCCC(Nc2cnn(C)c(=O)c2Cl)C1 (stereo not shown) [Example 52, 4-chloro-2-methyl-5-((1-((1-methyl-1H-imidazol-2-yl)methyl)piperidin-3-yl)amino)pyridazin-3(2H)-one]	1410 nM

Reference: patent US10239861B2, “Therapeutic compounds and uses thereof” (GENENTECH, INC., priority 2015, dated 2019)
